# Reference: PubChem BioAssay (NCI)
#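 Where inhibition never reached the appropriate level, the endpoint shown equals the highest concentration tested. Otherwise, values were interpolated linearly from a five-concentration, 48-hour dose response in 96-well plates. GI50 marks 50% less growth. TGI: concentration producing complete growth inhibition.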
# What was measured:
# Test in all cases: inhibition of tumour cell growth, NCI panel, 48 h
# EKVX NSCLC = test system: EKVX NSCLC
# HCT-116 colon = test system: HCT-116 colon
# HCT-15 colon = test system: HCT-15 colon
# HOP-92 NSCLC = test system: HOP-92 NSCLC
# NCI-H23 lung = test system: NCI-H23 lung
# OVCAR-8 ovarian = test system: OVCAR-8 ovarian
# RPMI-8226 leukemia = test system: RPMI-8226 leukemia
# SF-295 CNS = test system: SF-295 CNS
# SN12C renal = test system: SN12C renal
# SR leukemia = test system: SR leukemia
Compound,GI50 (EKVX NSCLC),TGI (EKVX NSCLC),GI50 (HCT-116 colon),TGI (HCT-116 colon),GI50 (HCT-15 colon),TGI (HCT-15 colon),GI50 (HOP-92 NSCLC),TGI (HOP-92 NSCLC),GI50 (NCI-H23 lung),TGI (NCI-H23 lung),GI50 (OVCAR-8 ovarian),TGI (OVCAR-8 ovarian),GI50 (RPMI-8226 leukemia),TGI (RPMI-8226 leukemia),GI50 (SF-295 CNS),TGI (SF-295 CNS),GI50 (SN12C renal),TGI (SN12C renal),GI50 (SR leukemia),TGI (SR leukemia)
O=[N+]([O-])c1ccc(Sc2ncnc3nc[nH]c23)c2nonc12,18.1 µM,36.5 µM,2.59 µM,12.9 µM,10.5 µM,36.1 µM,2 µM,22.2 µM,10.3 µM,23.6 µM,7.23 µM,28.9 µM,2.92 µM,48 µM,3.87 µM,20.6 µM,18.1 µM,53.1 µM,0.723 µM,13 µM
O=C1c2ccccc2S(=O)(=O)N1CSC(=S)N1CCCCC1,> 100 µM,> 100 µM,> 100 µM,> 100 µM,> 100 µM,> 100 µM,> 100 µM,> 100 µM,> 100 µM,> 100 µM,> 100 µM,> 100 µM,0.205 µM,0.607 µM,> 100 µM,> 100 µM,> 46.5 µM,> 100 µM,0.266 µM,> 100 µM
COc1ccc(C(SCC(N)C(=O)O)(c2ccccc2)c2ccccc2)cc1 (stereo unspecified),0.436 µM,> 100 µM,0.043 µM,25.8 µM,0.451 µM,> 72.2 µM,2 µM,66.8 µM,0.414 µM,> 87.4 µM,0.482 µM,> 100 µM,0.0419 µM,> 56.5 µM,0.0948 µM,> 100 µM,0.199 µM,> 68.4 µM,3.21 µM,> 100 µM
CCOC(=O)c1c(C)n2c(=O)cc(C)c3c(O)c(O)cc1c32,20.8 µM,> 100 µM,18.5 µM,35.5 µM,2.48 µM,51.1 µM,2.49 µM,31.6 µM,10.9 µM,51.6 µM,2.7 µM,9.32 µM,1.92 µM,15.1 µM,10.3 µM,> 100 µM,3.85 µM,24.6 µM,0.721 µM,17 µM
COc1cc(-c2nc3ccccc3s2)ccc1NC(=O)COc1ccc(Cl)cc1,8.67 µM,> 100 µM,4.41 µM,> 100 µM,> 100 µM,> 100 µM,1.66 µM,4.99 µM,3.01 µM,25.6 µM,2.79 µM,46.6 µM,11.8 µM,> 100 µM,3.35 µM,25.1 µM,5.29 µM,> 100 µM,76.5 µM,> 100 µM
Cc1cc(O)ccc1C1=NN(c2ccc(S(C)(=O)=O)cc2)C(=O)CC1,57.9 µM,> 100 µM,3.78 µM,> 100 µM,7.91 µM,> 100 µM,6.49 µM,> 100 µM,38.5 µM,> 100 µM,12.3 µM,> 100 µM,25.6 µM,> 100 µM,2.87 µM,12.4 µM,7.18 µM,> 100 µM,3.39 µM,> 100 µM
Clc1ccc2c(c1)N(CCCN1CCCC1)c1ccccc1S2,8 µM,21.6 µM,3.19 µM,12.1 µM,3.72 µM,13.5 µM,3.94 µM,16.2 µM,10.2 µM,24 µM,9.64 µM,23.4 µM,7.4 µM,24.3 µM,6.83 µM,21.6 µM,11.7 µM,27.3 µM,2.01 µM,4.91 µM
COc1ccc2c(CN3CCC(C(=O)O)CC3)cc3cc4c(cc3c2c1)OCO4,3.69 µM,20.6 µM,1.4 µM,8.78 µM,2.76 µM,16.7 µM,1.62 µM,5.34 µM,2.53 µM,8.9 µM,1.28 µM,4.86 µM,1.4 µM,3.59 µM,2.39 µM,10.1 µM,1.27 µM,4.08 µM,0.886 µM,5.78 µM
O=C1C(=O)c2c(nc3ccc(Br)cn23)-c2ccccc21,1.54 µM,3.31 µM,0.314 µM,1.2 µM,0.759 µM,2.66 µM,1.22 µM,2.7 µM,0.372 µM,2.51 µM,0.575 µM,1.68 µM,0.388 µM,2.67 µM,1.61 µM,3.02 µM,0.329 µM,0.806 µM,0.33 µM,1.52 µM
NC(=O)c1ccc(NN=O)nc1,,> 100 µM,,> 100 µM,,> 100 µM,> 100 µM,> 100 µM,,> 100 µM,,> 100 µM,> 100 µM,> 100 µM,,> 100 µM,,> 100 µM,,> 100 µM
O=C(c1ccccc1)N1C2CCC1C(C(F)(F)F)=C2C(F)(F)F,,> 100 µM,,> 100 µM,,> 100 µM,,> 100 µM,,> 100 µM,,> 100 µM,,> 100 µM,,> 100 µM,,> 100 µM,,> 100 µM
CCN1C(=O)N(CC)C2Nn3c(s/c(=C\c4ccccc4Br)c3=O)=NC21 (stereo unspecified),2.3 µM,> 100 µM,0.497 µM,> 100 µM,1.48 µM,> 100 µM,4.14 µM,80.8 µM,2.7 µM,> 100 µM,1.61 µM,7.85 µM,1.79 µM,15.2 µM,0.691 µM,7.75 µM,3.17 µM,27.8 µM,0.573 µM,8.3 µM
COc1ccc2cc(-c3cc4c(oc3=O)-c3ccccc3OC4O)c(=O)oc2c1 (stereo unspecified),15.2 µM,32.8 µM,20.2 µM,34.7 µM,15.8 µM,32 µM,10.2 µM,24.7 µM,17.7 µM,33.4 µM,17.5 µM,35.3 µM,13.4 µM,58.7 µM,,15.3 µM,17.2 µM,32.2 µM,79.7 µM,> 100 µM
Cl.Fc1c[c-]c(-c2ccccn2)c(F)c1.[Pt].c1ccc(P(c2ccccc2)C([PH+](c2ccccc2)c2ccccc2)[PH+](c2ccccc2)c2ccccc2)cc1,3.1 µM,> 100 µM,2.72 µM,12.3 µM,6.88 µM,> 100 µM,1.7 µM,5.62 µM,3.06 µM,61.1 µM,2.83 µM,38.5 µM,1.68 µM,5.51 µM,3.46 µM,14.7 µM,2.91 µM,15.4 µM,2.61 µM,> 100 µM
